We go through 14 molecules from PubChem BioAssay AID192 (DTP/NCI, 2004).

Several values for one entry are separate records, joined by “and”; a condition that tells them apart may be missing. Identical values can stand only once. Toxic doses and inconclusive results are not listed.

For this test, the system named is BDF1 mice, B16 melanoma ip, median survival T/C. Kind of test: NCI In Vivo Anticancer Drug Screen. Data for tumor model B16 Melanoma (intraperitoneal) in B6D2F1 (BDF1) mice. To be noted: endpoint: median survival time, higher = longer survival. In a few lines:
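Each result divides a survival or tumor-size measurement in the compound-treated group by the same measurement in the vehicle group.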

Where [1] appears, read: dose: 100.0 mg/kg/injection, schedule: Q01DX009 (ip), vehicle: saline.
The mark [2] stands for this setting: dose: 25.0 mg/kg/injection, schedule: Q01DX009 (ip), vehicle: Klucel (hydroxypropylcellulose) (HPC).
Setting [3] is: dose: 25.0 mg/kg/injection, schedule: Q04DX003 (ip), vehicle: Klucel (hydroxypropylcellulose) (HPC).
Where [4] appears, read: dose: 100.0 mg/kg/injection, schedule: Q01DX009 (ip), vehicle: Klucel (hydroxypropylcellulose) (HPC).
Setting [5] is: dose: 200.0 mg/kg/injection, schedule: Q01DX009 (ip), vehicle: Klucel (hydroxypropylcellulose) (HPC).

On to `CC(=N\O)/C(C)=N/O.CC(=N\O)/C(C)=N/O.CC(=N\O)/C(C)=N/O.CC(=N\O)/C(C)=N/O.[Cu].[Cu]`, for which the T/C (dose: 0.78 mg/kg/injection, schedule: Q01DX009 (ip), vehicle: Klucel (hydroxypropylcellulose) (HPC)) was 93 % of control; the T/C (dose: 1.56 mg/kg/injection, schedule: Q01DX009 (ip), vehicle: Klucel (hydroxypropylcellulose) (HPC)) is 103 % of control; the T/C (dose: 3.13 mg/kg/injection, schedule: Q01DX009 (ip), vehicle: Klucel (hydroxypropylcellulose) (HPC)) is 103 % of control.

Regarding `Cc1ccn2ncnc2c1`, the T/C runs as follows: (dose: 50.0 mg/kg/injection, schedule: Q01DX009 (ip), vehicle: saline) 89 % of control; under setting [1], 86 % of control.

For the molecule `CCC/C=C/C=C\C(=O)O[C@@H]1[C@@H](C)[C@]2(O)[C@@H]3C=C(C)C(=O)[C@H]3CC(COC(C)=O)=C[C@H]2[C@@H]2C(C)(C)[C@]12OC(C)=O`, the T/C is, setting by setting: (dose: 0.75 mg/kg/injection, schedule: Q01DX009 (ip), vehicle: saline + alcohol) 107 % of control; (dose: 1.5 mg/kg/injection, schedule: Q01DX009 (ip), vehicle: saline + alcohol) 105 % of control; (dose: 3.0 mg/kg/injection, schedule: Q01DX009 (ip), vehicle: saline + alcohol) 113 % of control; (dose: 6.0 mg/kg/injection, schedule: Q01DX009 (ip), vehicle: saline + alcohol) 113 % of control.

Take `c1ccc(CSc2ncnc3nc[nH]c23)cc1`: the T/C is 95 % of control under setting [2]; 95 % of control under setting [3]; 100 % of control (dose: 50.0 mg/kg/injection, schedule: Q04DX003 (ip), vehicle: Klucel (hydroxypropylcellulose) (HPC)); 97 % of control (dose: 100.0 mg/kg/injection, schedule: Q04DX003 (ip), vehicle: Klucel (hydroxypropylcellulose) (HPC)).

Turning to `NC(N)=NC1=NC(=O)CS1`, the T/C (dose: 50.0 mg/kg/injection, schedule: Q04DX003 (ip), vehicle: saline with Tween-80) was 102 % of control; the T/C under setting [4] was 93 % of control; the T/C (dose: 100.0 mg/kg/injection, schedule: Q04DX003 (ip), vehicle: saline with Tween-80) was 102 % of control; the T/C under setting [5] was 90 % of control; the T/C (dose: 200.0 mg/kg/injection, schedule: Q04DX003 (ip), vehicle: saline with Tween-80) is 100 % of control.

Turning to `Nc1nccc2c1ncn2C1OC(CO)C(O)C1O` (stereo not given), the T/C reads like this: (dose: 4.6 mg/kg/injection, schedule: Q03HX024 (ip), vehicle: saline with Tween-80) 90 % of control and 109 % of control; (dose: 9.3 mg/kg/injection, schedule: Q03HX024 (ip), vehicle: saline with Tween-80) 94 % of control and 117 % of control; (dose: 18.7 mg/kg/injection, schedule: Q03HX024 (ip), vehicle: saline with Tween-80) 98 % of control; (dose: 37.5 mg/kg/injection, schedule: Q03HX024 (ip), vehicle: saline with Tween-80) 94 % of control.

As to `N#Cc1ncc(C(Cl)Cl)nc1Cl`, the T/C is, setting by setting: (dose: 3.13 mg/kg/injection, schedule: Q01DX009 (ip), vehicle: saline + alcohol) 96 % of control; (dose: 6.25 mg/kg/injection, schedule: Q01DX009 (ip), vehicle: saline + alcohol) 91 % of control; (dose: 12.5 mg/kg/injection, schedule: Q01DX009 (ip), vehicle: saline + alcohol) 93 % of control; (dose: 25.0 mg/kg/injection, schedule: Q01DX009 (ip), vehicle: saline + alcohol) 89 % of control; (dose: 25.0 mg/kg/injection, schedule: Q01DX009 (ip), vehicle: saline with Tween-80) 94 % of control.

On to `CCN(CC)CCCC(C)NCCCCNC(C)CCCN(CC)CC` (stereo not given), for which the T/C is 96 % of control (dose: 4.69 mg/kg/injection, schedule: Q01DX009 (ip), vehicle: alcohol); 115 % of control (dose: 6.25 mg/kg/injection, schedule: Q01DX009 (ip), vehicle: alcohol); 104 % of control (dose: 9.38 mg/kg/injection, schedule: Q01DX009 (ip), vehicle: alcohol); 122 % of control (dose: 11.0 mg/kg/injection, schedule: Q01DX009 (ip), vehicle: water); 88 % of control (dose: 12.5 mg/kg/injection, schedule: Q01DX009 (ip), vehicle: alcohol); 94 % of control (dose: 16.5 mg/kg/injection, schedule: Q01DX009 (ip), vehicle: water). For the same molecule, under “dose: 25.0 mg/kg/injection, schedule: Q01DX009 (ip), vehicle: water”, the T/C is 87 % of control and 224 % of control.

Turning to `CC(C)(C)OC(=O)N1CCCC1C(=O)N1CCCC1C(=O)Oc1ccccc1` (stereo not given), the T/C was 121 % of control under setting [1]; 110 % of control (dose: 200.0 mg/kg/injection, schedule: Q01DX009 (ip), vehicle: saline); 114 % of control (dose: 400.0 mg/kg/injection, schedule: Q01DX009 (ip), vehicle: saline).

As for `COc1cccc2c1C(=O)c1c(O)c3c(c(O)c1C2=O)C[C@@](O)(/C(C)=N\NC=O)C[C@@H]3OC1CC(N)C(O)C(C)O1` (stereo not given in full), the T/C (dose: 0.38 mg/kg/injection, schedule: Q01DX009 (ip), vehicle: saline) was 112 % of control; the T/C (dose: 0.75 mg/kg/injection, schedule: Q01DX009 (ip), vehicle: saline) is 117 % of control; the T/C (dose: 1.5 mg/kg/injection, schedule: Q01DX009 (ip), vehicle: saline) was 150 % of control; the T/C (dose: 3.0 mg/kg/injection, schedule: Q01DX009 (ip), vehicle: saline) is 174 % of control; the T/C (dose: 6.0 mg/kg/injection, schedule: Q01DX009 (ip), vehicle: saline) is 216 % of control; the T/C (dose: 12.0 mg/kg/injection, schedule: Q01DX009 (ip), vehicle: saline) was 211 % of control.

Regarding `ClCCOC1COC(OCCCl)CO1` (stereo not given), the T/C is, setting by setting: (dose: 3.12 mg/kg/injection, schedule: Q01DX009 (ip), vehicle: Klucel (hydroxypropylcellulose) (HPC)) 103 % of control; (dose: 6.25 mg/kg/injection, schedule: Q01DX009 (ip), vehicle: Klucel (hydroxypropylcellulose) (HPC)) 98 % of control; (dose: 12.5 mg/kg/injection, schedule: Q01DX009 (ip), vehicle: Klucel (hydroxypropylcellulose) (HPC)) 93 % of control; under setting [2], 103 % of control; (dose: 50.0 mg/kg/injection, schedule: Q01DX009 (ip), vehicle: Klucel (hydroxypropylcellulose) (HPC)) 96 % of control; under setting [4], 98 % of control. In addition, under setting [5], the T/C was 100 % of control.

Take `Cc1ccccc1NC(=S)N(C)C`: the T/C by setting is: (dose: 6.25 mg/kg/injection, schedule: Q04DX003 (ip), vehicle: Klucel (hydroxypropylcellulose) (HPC)) 96 % of control; (dose: 12.5 mg/kg/injection, schedule: Q04DX003 (ip), vehicle: Klucel (hydroxypropylcellulose) (HPC)) 100 % of control; under setting [3], 88 % of control and 100 % of control.

Turning to `C=C1C(=O)C2(C)OC2(C)C1C(=O)O` (stereo not given), the T/C was 109 % of control (dose: 1.25 mg/kg/injection, schedule: Q01DX009 (ip), vehicle: Klucel (hydroxypropylcellulose) (HPC)); 105 % of control (dose: 2.5 mg/kg/injection, schedule: Q01DX009 (ip), vehicle: Klucel (hydroxypropylcellulose) (HPC)); 99 % of control (dose: 5.0 mg/kg/injection, schedule: Q01DX009 (ip), vehicle: Klucel (hydroxypropylcellulose) (HPC)); 93 % of control (dose: 10.0 mg/kg/injection, schedule: Q01DX009 (ip), vehicle: Klucel (hydroxypropylcellulose) (HPC)).

Regarding `CCCCC1(CC)COC(C)(c2ccccc2)OC1` (stereo not given), the T/C (dose: 75.0 mg/kg/injection, schedule: Q01DX009 (ip), vehicle: saline with Tween-80) was 108 % of control; the T/C (dose: 150.0 mg/kg/injection, schedule: Q01DX009 (ip), vehicle: saline with Tween-80) was 106 % of control; the T/C (dose: 300.0 mg/kg/injection, schedule: Q01DX009 (ip), vehicle: saline with Tween-80) is 98 % of control.
